Source: the NIST ThermoML archive (doi:10.1016/j.jct.2017.05.001)

Assay: wn = mass fraction of the nth substance listed
Conditions: Liquid; for mass density: Vibrating tube method

CN(C)CCO [2-(N,N-dimethylamino)ethanol] + O
viscosity [mPa·s]
Conditions	293.15 K	313.15 K	333.15 K
100 kPa, Concentric cylinders viscometry, w1 = 0.1	1.587	0.947	0.623
100 kPa, Concentric cylinders viscometry, w1 = 0.2	2.614	1.408	0.888
100 kPa, Concentric cylinders viscometry, w1 = 0.3	4.334	2.102	1.226
100 kPa, Concentric cylinders viscometry, w1 = 0.4	6.754	3.068	1.671
100 kPa, Falling or rolling sphere viscometry, w1 = 0.1005	1.559	0.9401	0.6336
100 kPa, Falling or rolling sphere viscometry, w1 = 0.202	2.533	1.368	0.8725
100 kPa, Falling or rolling sphere viscometry, w1 = 0.3005	4.211	2.042	1.217
100 kPa, Falling or rolling sphere viscometry, w1 = 0.3995	6.587	2.99	1.651
5000 kPa, Falling or rolling sphere viscometry, w1 = 0.1005	1.564	0.9415	0.6341
5000 kPa, Falling or rolling sphere viscometry, w1 = 0.202	2.547	1.374	0.877
5000 kPa, Falling or rolling sphere viscometry, w1 = 0.3005	4.223	2.063	1.223
5000 kPa, Falling or rolling sphere viscometry, w1 = 0.3995	6.535	3.031	1.669
10000 kPa, Falling or rolling sphere viscometry, w1 = 0.1005	1.564	0.9437	0.6372
10000 kPa, Falling or rolling sphere viscometry, w1 = 0.202	2.557	1.382	0.8862
10000 kPa, Falling or rolling sphere viscometry, w1 = 0.3005	4.258	2.083	1.239
10000 kPa, Falling or rolling sphere viscometry, w1 = 0.3995	6.564	3.075	1.695
15000 kPa, Falling or rolling sphere viscometry, w1 = 0.1005	1.563	0.9453	0.6403
15000 kPa, Falling or rolling sphere viscometry, w1 = 0.202	2.566	1.392	0.8907
15000 kPa, Falling or rolling sphere viscometry, w1 = 0.3005	4.295	2.103	1.249
15000 kPa, Falling or rolling sphere viscometry, w1 = 0.3995	6.801	3.121	1.719
20000 kPa, Falling or rolling sphere viscometry, w1 = 0.1005	1.562	0.9476	0.6431
20000 kPa, Falling or rolling sphere viscometry, w1 = 0.202	2.574	1.395	0.897
20000 kPa, Falling or rolling sphere viscometry, w1 = 0.3005	4.33	2.121	1.26
20000 kPa, Falling or rolling sphere viscometry, w1 = 0.3995	6.863	3.164	1.742
25000 kPa, Falling or rolling sphere viscometry, w1 = 0.1005	1.561	0.9506	0.6461
25000 kPa, Falling or rolling sphere viscometry, w1 = 0.202	2.583	1.4	0.9026
25000 kPa, Falling or rolling sphere viscometry, w1 = 0.3005	4.374	2.142	1.274
25000 kPa, Falling or rolling sphere viscometry, w1 = 0.3995	6.822	3.209	1.765
30000 kPa, Falling or rolling sphere viscometry, w1 = 0.1005	1.564	0.9525	0.6477
30000 kPa, Falling or rolling sphere viscometry, w1 = 0.202	2.589	1.412	0.9063
30000 kPa, Falling or rolling sphere viscometry, w1 = 0.3005	4.405	2.161	1.283
30000 kPa, Falling or rolling sphere viscometry, w1 = 0.3995	7.027	3.253	1.789
40000 kPa, Falling or rolling sphere viscometry, w1 = 0.1005	1.564	0.957	0.6532
40000 kPa, Falling or rolling sphere viscometry, w1 = 0.202	2.605	1.423	0.9178
40000 kPa, Falling or rolling sphere viscometry, w1 = 0.3005	4.464	2.197	1.305
40000 kPa, Falling or rolling sphere viscometry, w1 = 0.3995	6.883	3.342	1.835
60000 kPa, Falling or rolling sphere viscometry, w1 = 0.1005	1.562	0.9672	0.6631
60000 kPa, Falling or rolling sphere viscometry, w1 = 0.202	2.637	1.45	0.9397
60000 kPa, Falling or rolling sphere viscometry, w1 = 0.3005	4.588	2.273	1.353
60000 kPa, Falling or rolling sphere viscometry, w1 = 0.3995	7.591	3.519	1.927
80000 kPa, Falling or rolling sphere viscometry, w1 = 0.1005	1.57	0.9775	0.6729
80000 kPa, Falling or rolling sphere viscometry, w1 = 0.202	2.672	1.479	0.9613
80000 kPa, Falling or rolling sphere viscometry, w1 = 0.3005	4.73	2.348	1.396
80000 kPa, Falling or rolling sphere viscometry, w1 = 0.3995	–	3.698	2.019
100000 kPa, Falling or rolling sphere viscometry, w1 = 0.1005	1.577	0.9881	0.685
100000 kPa, Falling or rolling sphere viscometry, w1 = 0.202	2.706	1.508	0.9835
100000 kPa, Falling or rolling sphere viscometry, w1 = 0.3005	4.861	2.424	1.442
100000 kPa, Falling or rolling sphere viscometry, w1 = 0.3995	–	3.881	2.113

mass density [kg/m3]
Conditions	w1 = 0.1005	w1 = 0.202	w1 = 0.3005	w1 = 0.3995
293.15 K, 100 kPa	994.5	992.6	990.6	986.6
293.15 K, 500 kPa	994.7	992.7	990.7	986.7
293.15 K, 1000 kPa	994.8	992.9	990.9	986.9
293.15 K, 2000 kPa	995.3	993.3	991.3	987.3
293.15 K, 5000 kPa	996.5	994.4	992.4	988.4
293.15 K, 10000 kPa	998.5	996.3	994.2	990.3
293.15 K, 15000 kPa	1000.5	998.2	996	992.1
293.15 K, 20000 kPa	1002.6	1000	997.8	994
293.15 K, 30000 kPa	1006.6	1003.7	1001.4	997.5
293.15 K, 40000 kPa	1010.5	1007.4	1004.9	1001
293.15 K, 50000 kPa	1014.3	1010.8	1008.2	1004.4
293.15 K, 60000 kPa	1018.1	1014.3	1011.6	1007.7
293.15 K, 70000 kPa	1021.8	1017.9	1014.9	1011
293.15 K, 80000 kPa	1025.3	1021.1	1018	1014.1
293.15 K, 90000 kPa	1029	1024.4	1021.2	1017.3
293.15 K, 100000 kPa	1032.5	1027.7	1024.3	1020.4
293.15 K, 110000 kPa	1035.9	1030.8	1027.2	1023.2
293.15 K, 120000 kPa	1039.3	1033.9	1030.2	1026.3
293.15 K, 130000 kPa	1042.7	1037.2	1033.3	1029.2
293.15 K, 140000 kPa	1045.7	1040.1	1036	1031.9
313.15 K, 100 kPa	987.4	983.2	978.8	972.7
313.15 K, 500 kPa	987.6	983.4	979	972.9
313.15 K, 1000 kPa	987.8	983.6	979.2	973.1
313.15 K, 2000 kPa	988.3	984	979.6	973.5
313.15 K, 5000 kPa	989.5	985.2	980.8	974.7
313.15 K, 10000 kPa	991.5	987.2	982.7	976.7
313.15 K, 15000 kPa	993.4	989.1	984.6	978.6
313.15 K, 20000 kPa	995.4	990.9	986.5	980.6
313.15 K, 30000 kPa	999.4	994.8	990.3	984.4
313.15 K, 40000 kPa	1003.4	998.6	994	988.2
313.15 K, 50000 kPa	1007	1002.1	997.5	991.7
313.15 K, 60000 kPa	1010.8	1005.6	1001	995.3
313.15 K, 70000 kPa	1014.5	1009.1	1004.4	998.7
313.15 K, 80000 kPa	1018	1012.5	1007.6	1002
313.15 K, 90000 kPa	1021.4	1015.7	1010.9	1005.3
313.15 K, 100000 kPa	1024.9	1019.1	1014.1	1008.5
313.15 K, 110000 kPa	1028.3	1022.3	1017.3	1011.7
313.15 K, 120000 kPa	1031.6	1025.6	1020.4	1014.7
313.15 K, 130000 kPa	1035	1028.6	1023.4	1017.7
313.15 K, 140000 kPa	1038.2	1031.7	1026.4	1020.7
333.15 K, 100 kPa	977.4	971.5	965.2	957.4
333.15 K, 500 kPa	977.6	971.8	965.4	957.6
333.15 K, 1000 kPa	977.8	972	965.6	957.9
333.15 K, 2000 kPa	978.2	972.4	966.1	958.3
333.15 K, 5000 kPa	979.5	973.7	967.3	959.6
333.15 K, 10000 kPa	981.5	975.7	969.5	961.8
333.15 K, 15000 kPa	983.6	977.7	971.5	963.9
333.15 K, 20000 kPa	985.6	979.7	973.5	966
333.15 K, 30000 kPa	989.7	983.7	977.5	970.2
333.15 K, 40000 kPa	993.7	987.7	981.5	974.2
333.15 K, 50000 kPa	997.3	991.3	985.2	977.9
333.15 K, 60000 kPa	1001.1	995	988.9	981.7
333.15 K, 70000 kPa	1004.9	998.6	992.5	985.4
333.15 K, 80000 kPa	1008.4	1002.1	996	988.9
333.15 K, 90000 kPa	1012	1005.4	999.2	992.3
333.15 K, 100000 kPa	1015.4	1008.9	1002.7	995.8
333.15 K, 110000 kPa	1018.9	1012.2	1006	999
333.15 K, 120000 kPa	1022.3	1015.5	1009.3	1002.4
333.15 K, 130000 kPa	1025.5	–	–	–
